Consider 2 compounds from US5411983A, “Certain hyrdoxy-phosphinyl-oxy-phenylmethyl-imidazolium hydroxide inner salts as PAF antagonists” (American Cyanamid Company, priority 1993, dated 1995).

SMILES strings stand for the structures. Structures can show the parent of a compound that is named as a salt.

For one assay, the system named is PAF induced lethality. Put plainly: PAF induced lethality in the mouse. It counts as in vivo, mouse (ICR). As to conditions: ip, 1 h, mice, test compound i.p. 1/2 hour before PAF i.v., dose that protects 1/2 the animals, read-out: PAF induced Lethality PD50 (mg/kg I.P., 1/2 hour). How it is done: PAF Induced Lethality in the Mouse
Test compounds were evaluated for their ability to prevent death induced by an intravenous injection of a lethal dose of PAF.
ICR mice were given test compounds intraperitoneally as described under Inhibition of PAF Induced Vascular Permeability Change in Mouse Skin, 1/2 hour before an intravenous dose of 100 μg/kg PAF in saline. One hour later the number of dead mice were recorded. Protection was expressed as percent survivors in treated group/percent survivors in control group.

Assay [1] concerns PAF induced vascular permeability change in mouse skin. Put plainly: Inhibition of PAF induced vascular permeability change in mouse skin. It counts as in vivo, mouse (Hilltop ICR). The settings on record: ip, 0.5 h, test compound i.p., PAF i.d., read-out: Inhibition of Vascular Permeability Lesion (ED50 mg/kg). The method, then: Inhibition of PAF Induced Vascular Permeability Change in Mouse Skin
The rationale for this test is similar to the coinjection test in guinea pigs; however, the test compound was given intraperitoneally rather than coinjected.
Test solutions were prepared as follows: An 80 μg portion of PAF was dissolved in 40 ml of saline to yield a concentration of 2000 ng/ml. A 10 mg portion of histamine diphosphate was dissolved in 100 ml of saline to yield a concentration 100 μg/ml. Test compounds were dissolved in saline and given intraperitoneally (20 mg/kg) 1/2 hour before intradermal challenge with PAF or histamine.
The animals used were Hilltop ICR mice, shaved on their flanks one day before use. The mice were randomly assigned to treated and control groups and were given test compound or saline 1/2 hour before challenge. Each mouse was injected via a tail vein with 0.25 ml of 0.05% Evans' blue dye immediately before the PAF or histamine intradermal injections were made (0.05 ml each), one per side.
Thirty minutes later the animals were killed and the lesions areas measured as described above. Lesion areas in treated animals were expressed as a percent of the control lesions and an ED50 (mg/kg) was calculated from an arcsine area vs. log dose transform.

Assay [2] deals with PAF induced vascular permeability change in guinea pig skin.
Source text: Platelet Activating Factor (PAF) given intradermally, increases capillary permeability, and plasma proteins (e.g albumin) leak from the vascular space into the interstitial fluids of the skin. If the albumin has been previously stained with Evans' blue dye, the lesion area can be visualized as a blue spot in the .skin. A specific PAF antagonist inhibits the development of increased capillary permeability caused by PAF and reduces the leakage of proteins into the skin. Test compounds were evaluated for non-specific effects by monitoring their ability to inhibit or reduce a histamine induced increase in capillary permeability.
Test Solutions were prepared as follows: Evans' Blue Dye (Sigma E2129) was dissolved in saline to yield a 0.1% w/v solution. A 2 mg/ml stock chloroform solution of PAF (1-phosphotidyl, acetyl-O-alkyl; Sigma P9525) was diluted in saline to give final concentrations of 500 and 250 ng/ml. Saline dilutions were made fresh for each test. Histamine diphosphate solutions (Sigma H7375) were prepared by dissolving 10 mg in 100 ml of saline and diluting to 20 μg/ml with saline. Test compounds were dissolved in ethanol at 10 mg/ml and stored at -70° C. Injection mixtures were made by placing 10 μl of test compound solution into 1.0 ml of either the PAF solutions or the histamine solution.
The animals used were Hartley strain guinea pigs weighing 250-350 g, maintained with food and water ad libitum. The animals were shaved on their back and hind feet one day before use.
Each guinea pig was given an intravenous injection of 2 ml of Evans' blue dye solution into a foot vein. Immediately after, a series of six intradermal injections of 0.1 ml each were given, three on each side of the animal. They were: PAF 50 ng (0.1 ml of a 500 ng/ml solution); PAF 25 ng; and histamine diphosphate 2 μg. The left side injections contain 10 μg of test compound while the right side contain an equivalent amount of the ethanol vehicle to serve as a control.
Thirty minutes later the animals were killed by cervical dislocation and the skin reflected from the back. The lesion areas were approximated as the product of the largest diameter and normal diameter both in mm.
The target of assay [3] is T1, PAF receptor (Oryctolagus cuniculus, UniProt G1TEI7). Kind of assay: Inhibition of PAF induced platelet aggregation in rabbit platelet rich plasma (PRP). In kind it is cell-based, rabbit (male New Zealand White). Details: immediately centrifuged at 800 rpm for 10 minutes at room temperature to recover the platelet rich plasma (PRP); endogenous in cells; host or cells: rabbit platelets in platelet rich plasma (male New Zealand White rabbits). The settings on record: for IC50: IC50 (M) PRP, inhibition of PAF-induced platelet aggregation, rabbit platelet rich plasma. How it is done:
(§1) Platelet activating factor (PAF) compounds were evaluated as PAF receptor antagonists in vitro by measuring inhibition of PAF induced platelet aggregation. Platelet aggregation was measured by a modification of the method of A. Wissner, et. al., J. Med. Chem., 27, 1174, 1984.
(§2) Approximately 120-240 ml of blood were collected by cardiac puncture from unanesthetized male New Zealand White rabbits (Whaley's Summit View Farms, Belvedere, N.J.) with the use of 3.2% sodium citrate anticoagulant (1 part of citrate/10 parts of blood). All syringes and pipets were plastic. The blood was gently mixed and immediately centrifuged at 800 rpm for 10 minutes at room temperature to recover the platelet rich plasma (PRP). Platelet poor plasma (PPP) was prepared by centrifuging PRP at 2800 rpm for 10 minutes at room temperature.
(§3) Dilutions (1:3000) Of PRP in Isoton diluent were made and platelet counts were determined on a Coulter Thrombocounter which was standardized with platelet reference standards (Interscience Platelet Control, Portland, Oreg.). PRP platelet counts were adjusted to 500,000 platelets/μl by the addition of PPP.
(§4) L-PAF was obtained from Calbiochem. A stock solution of 1-2 E-3M was prepared in 10% ethanol in water and serial working dilutions were made using phosphate buffered saline (PBS). 1-2 E-3M stock solutions of test compounds were prepared in 100% methanol and serially diluted in PBS. All solutions were made up in plastic tubes, stored on ice and protected from heat and light. Solutions were prepared fresh or frozen at -20° C. and used within 48 hours.
(§5) Incubation mixtures consisted of 400 μl PRP, 50 μl of PBS diluent or test compound and 50 μl of PAF agonist. More specifically, 400 μl of PRP was stabilized in a cuvette for 1-2 minutes at 37° C. in the aggregometer to achieve a stable baseline, then 50 μl of PBS or test compound, was added and incubated for 5 minutes before addition of the challenge concentration of PAF ([…], as determined from the dose response curve for PAF for that experiment). Aggregation was monitored for 5 minutes. Samples containing test compound or diluent were run simultaneously for comparison. Test compounds were initially evaluated at a screening concentration of 1E-5M. Those producing ≥ 50% inhibition of the magnitude of aggregation were then reevaluated in a dose response fashion (final concentrations 1E-7M to 5E-5M) and IC50 values were determined. Ki values were also calculated in some cases from [formula] where Ki =inhibitory constant
(§6) IC50 =molar concentration of test compound which gives 50% inhibition
(§7) [PAF]=molar concentration of PAF used as challenges
(§8) EC50 =molar concentration of PAF which gives 50% of maximal aggregation.
(§9) The recording equipment consisted of single or dual channel Chronolog aggregometers connected to dual channel 10 MV full scale deflection Omniscribe chart recorders (Houston Instruments). […] The bead suspension was used to set the 0% light transmission mark and clear water was used to set the 100% light transmission mark. These limits defined a full scale deflection. The aggregation traces were analyzed by a digitizing method (C. Kohler and B. Zoltan, J. Pharm. Methods, 12, 113, 1984) with x, y coordinate data stored in a computer file. A suitable program computed parameters of interest such as the magnitude of aggregation.

Assay [4] deals with T1, PAF receptor. Kind of assay: Inhibition of PAF induced platelet aggregation in washed rabbit platelets. The arrangement: In some experiments, washed platelets were used instead of PRP; endogenous in cells; host or cells: washed rabbit platelets. As to conditions: for Ki: calculated from IC50, [PAF] and EC50; for IC50: challenge concentration of PAF 5E9M [sic]. In kind it is cell-based. How it is done: as §1, §2, §3, §4, §5, §6, §7, §8, §9
In some experiments, washed platelets were used instead of PRP. Washed platelet suspensions were prepared as follows. PRP was centrifuged at 2800 rpm for 10 minutes to obtain PPP and a platelet pellet. The pellet was gently suspended and washed in calcium free, albumin free Tyrode's buffer, pH 6.3. The suspension was recentrifuged and the washed pellet was resuspended in normal Tyrodes', buffer (with calcium, but albumin free), pH 7.4. Platelet counts were adjusted to 500,00 platelets/μl.

T1 sequence (G1TEI7 1-342): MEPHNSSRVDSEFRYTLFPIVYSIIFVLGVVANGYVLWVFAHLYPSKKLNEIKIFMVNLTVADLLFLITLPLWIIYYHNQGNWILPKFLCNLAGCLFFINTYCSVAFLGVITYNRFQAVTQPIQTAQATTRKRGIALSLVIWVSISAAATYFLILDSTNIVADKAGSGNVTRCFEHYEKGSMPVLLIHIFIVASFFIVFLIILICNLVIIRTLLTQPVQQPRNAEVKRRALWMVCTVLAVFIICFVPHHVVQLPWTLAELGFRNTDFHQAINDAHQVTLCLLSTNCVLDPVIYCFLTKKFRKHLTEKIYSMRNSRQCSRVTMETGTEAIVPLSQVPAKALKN

On to `CCCCCCCCCCCCCCCCOCC(COP(=O)([O-])Oc1cccc(C[n+]2ccsc2)c1)OC` (stereo not drawn) [3-[[3-[[[3-(Hexadecyloxy)-2-methoxypropoxy]hydroxyphosphinyl]oxy]phenyl]methyl]thiazolium, hydroxide, inner salt], for which the ED50 in the assay with PAF induced lethality is under 1.25 mg/kg; in assay [1], 5.6 mg/kg. The “Inhibition of Vascular Permeability Lesion (% of Control)” value in assay [2] is on record as 25 % of Control. Moreover, the Ki at PAF receptor [3] was 490 nM; at PAF receptor [4], 8 nM. The IC50 was found to be 4.7e-05 M on PAF receptor [3] (PAF challenge 1E-6M), 1e-06 M against PAF receptor [3] (PAF challenge 1E-7M), 9.9e-07 M on PAF receptor [3] (PAF challenge 5E-8M) and 17 nM on PAF receptor [4].

In the case of `CCCCCCCCCCCCCCc1cccc(OCC(COP(=O)([O-])Oc2cccc(C[n+]3ccsc3)c2)OC)c1` (stereo not drawn) [[[3-[[3-[[Hydroxy[2-methoxy-3-(3-tetradecylphenoxy)propoxy]phosphinyl]oxy]phenyl]methyl]thiazolium, hydroxide, inner salt], the values for the ED50 (in the assay on PAF induced lethality; in assay [1]) were under 1.25 mg/kg and 5.3 mg/kg, respectively. The “Inhibition of Vascular Permeability Lesion (% of Control)” value in assay [2] is listed as 3.8 % of Control. Further, the Ki on PAF receptor [3] is 210 nM; on PAF receptor [4], 1.4 nM. For the same compound, the IC50 was 4e-06 M against PAF receptor [3] (PAF challenge 1E-6M), 9.5e-07 M on PAF receptor [3] (PAF challenge 1E-7M), 8.1e-07 M against PAF receptor [3] (PAF challenge 5E-8M) and 9.5 nM against PAF receptor [4].
